Source: the NIST ThermoML archive (doi:10.1021/je5007696)

Assay: refractive index (Na D-line) (dimensionless); xn = mol fraction of the nth substance listed
Conditions: 100 kPa, Liquid, Standard Abbe refractometry

CCC(C)=O [butanone] + CCCCO
refractive index
Conditions	x1 = 0.0997	x1 = 0.1999	x1 = 0.3003	x1 = 0.4008	x1 = 0.5003	x1 = 0.6001	x1 = 0.6992	x1 = 0.7991	x1 = 0.899	x1 = 1
288.15 K	1.39943	1.3975	1.39558	1.39362	1.39169	1.38971	1.38771	1.38569	1.38364	1.38153
293.15 K	1.39733	1.39533	1.39333	1.39131	1.38933	1.38729	1.38525	1.38316	1.38108	1.37892
298.15 K	1.39524	1.39315	1.39107	1.38899	1.38696	1.38486	1.38276	1.38062	1.37849	1.37631
303.15 K	1.3931	1.39095	1.38882	1.38669	1.38457	1.38241	1.38025	1.37807	1.37589	1.37366
308.15 K	1.39096	1.38872	1.38651	1.38433	1.38215	1.37995	1.37775	1.37551	1.3733	1.37102
313.15 K	1.38881	1.38649	1.38421	1.38196	1.37973	1.37748	1.37522	1.37293	1.37065	1.36834
318.15 K	1.38664	1.38427	1.38192	1.37958	1.37728	1.37496	1.37265	1.37031	1.36798	1.36565
323.15 K	1.38447	1.38203	1.37959	1.37718	1.3748	1.37244	1.37008	1.36769	1.36531	1.36294
